Test results published in patent US20260217708A1, “FUSED BENZAZEPINE DERIVATIVES FOR USE IN THE TREATMENT OF CANCER AND EPILEPSY” (UCB BIOPHARMA SRL, priority 2023, published 2026).

Legend:
[1] = biological target: T1, system Xc^− (Homo sapiens, UniProt Q9UPY5); assay: Cystine-induced glutamate release assay; type: cell-based; design: endogenous in cells; host or cells: H4 cells; settings: H4 cells, sodium-free HEPES buffer, 50 μM L-Cystine, 2 hours, Amplex Red glutamate readout; for IC50: read-out: pIC50 Cystine-induced glutamate release assay (converted)
T1 sequence (Q9UPY5 1-501): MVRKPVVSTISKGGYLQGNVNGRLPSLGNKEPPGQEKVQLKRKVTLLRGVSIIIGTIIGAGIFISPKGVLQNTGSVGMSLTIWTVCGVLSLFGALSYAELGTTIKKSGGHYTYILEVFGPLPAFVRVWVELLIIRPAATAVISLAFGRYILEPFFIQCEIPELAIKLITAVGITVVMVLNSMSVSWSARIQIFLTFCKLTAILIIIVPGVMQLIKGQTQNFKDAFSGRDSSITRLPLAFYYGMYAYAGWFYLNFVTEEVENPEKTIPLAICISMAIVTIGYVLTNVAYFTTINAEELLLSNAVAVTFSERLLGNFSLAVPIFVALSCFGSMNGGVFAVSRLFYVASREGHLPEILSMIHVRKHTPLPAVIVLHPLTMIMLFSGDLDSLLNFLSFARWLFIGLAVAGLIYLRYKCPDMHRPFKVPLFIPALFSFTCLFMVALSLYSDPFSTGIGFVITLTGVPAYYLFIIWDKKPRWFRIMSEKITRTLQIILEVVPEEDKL
T1 sequence (P08195 1-529 partner): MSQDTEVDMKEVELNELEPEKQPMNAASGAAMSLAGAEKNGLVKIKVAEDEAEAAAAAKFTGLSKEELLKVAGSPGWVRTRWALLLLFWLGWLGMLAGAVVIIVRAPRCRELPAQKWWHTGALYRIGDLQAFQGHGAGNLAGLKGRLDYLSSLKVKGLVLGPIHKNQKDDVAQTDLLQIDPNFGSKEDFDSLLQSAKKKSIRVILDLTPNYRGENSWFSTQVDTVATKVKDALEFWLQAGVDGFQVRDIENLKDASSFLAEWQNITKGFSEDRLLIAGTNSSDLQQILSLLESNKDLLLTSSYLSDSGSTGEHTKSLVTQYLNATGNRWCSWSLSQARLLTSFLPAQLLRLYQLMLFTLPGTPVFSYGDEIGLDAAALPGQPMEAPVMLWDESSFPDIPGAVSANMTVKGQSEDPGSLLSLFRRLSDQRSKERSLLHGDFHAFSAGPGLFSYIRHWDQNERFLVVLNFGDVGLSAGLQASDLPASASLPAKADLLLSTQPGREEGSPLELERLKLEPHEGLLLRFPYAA
Method in brief: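 IC50 (reported as pIC50) normalized to DMSO 1% and Erastin 50 μM controls, from Amplex Red fluorescence of glutamate exported into supernatant. H4 cells were washed into sodium-free buffer to exclude EAAT transport, then given compound with 50 μM L-cystine for 2 h in the incubator.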

[2] = biological target: T1, system Xc^−; assay: [^14C]L-Cystine uptake assay; type: cell-based; design: endogenous in cells; host or cells: H4 cells; settings: H4 cells, sodium-free HEPES buffer, 0.5 μM L-[14C]Cystine and 4.5 μM L-Cystine, 1 hour at 37° C.; for IC50: read-out: pIC50 [^14C] L-Cystine uptake assay (converted)
Method in brief: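 Compound effect is given as pIC50, taken between controls of 1% DMSO and 50 μM Erastin. Human H4 cells were pretreated 15 min with compound in sodium-free buffer, then took up 0.5 μM [14C]cystine with 4.5 μM cold cystine for 1 hour at 37° C, read by scintillation proximity counting.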

SMILES	IC50 [1]	IC50 [2]	pIC50 Cystine-induced glutamate release assay [1]	pIC50 [^14C] L-Cystine uptake assay [2]
Cc1cc2c(c(F)n1)-c1cccnc1[C@@H](C)C(=O)N2CC(=O)Nc1ccc(C(F)(F)F)c(C)c1 [#137, 2-[(10R)-3-fluoro-5,10-dimethyl-9-oxo-4,8,12-triazatricyclo[9.4.0.0^2,7]pentadeca-1(11),2(7),3,5,12,14-hexaen-8-yl]-N-[3-methyl-4-(trifluoromethyl)phenyl]acetamide]	15.8 to 39.8 nM	15.8 to 39.8 nM		
Cc1ncc2c(n1)C(C)C(=O)N(CC(=O)Nc1ccc(Cl)c(F)c1)c1cc(Cl)cc(F)c1-2 (single isomer, unassigned) [#373, 2-[9-chloro-11-fluoro-3,5-dimethyl-6-oxo-5H-pyrimido[4,5-d][1]benzazepin-7-yl]-N-(4-chloro-3-fluoro-phenyl)acetamide]	15.8 to 39.8 nM	15.8 to 39.8 nM		
CC1C(=O)N(CC(=O)Nc2ccc(C(F)F)cc2)c2cc(N3CC4(C3)CC(F)(F)C4)nc(F)c2-c2cccnc21 (single isomer, unassigned) [#281, 2-[5-(6,6-difluoro-2-azaspiro[3.3]heptan-2-yl)-3-fluoro-10-methyl-9-oxo-4,8,12-triazatricyclo[9.4.0.0^2,7]pentadeca-1(15),2,4,6,11,13-hexaen-8-yl]-N-[4-(difluoromethyl)phenyl]acetamide]	39.8 to 100 nM	39.8 to 100 nM		
COc1nc(OC(F)F)cc2c1-c1cccnc1C(C)C(=O)N2CC(=O)Nc1ccc(C(F)F)cc1 (single isomer, unassigned) [#329, 2-[5-(difluoromethoxy)-3-methoxy-10-methyl-9-oxo-4,8,12-triazatricyclo[9.4.0.0^2,7]pentadeca-1(15),2(7),3,5,11,13-hexaen-8-yl]-N-[4-(difluoromethyl)phenyl]acetamide]	15.8 to 39.8 nM	15.8 to 39.8 nM		
COc1cc2c(cn1)-c1cccnc1C(C)C(=O)N2CC(=O)Nc1ccc(Cl)c(F)c1 (single isomer, unassigned) [#320, N-(4-chloro-3-fluoro-phenyl)-2-[5-methoxy-10-methyl-9-oxo-4,8,12-triazatricyclo[9.4.0.0^2,7]pentadeca-1(15),2(7),3,5,11,13-hexaen-8-yl]acetamide]	15.8 to 39.8 nM	15.8 to 39.8 nM		
O=C(CN1C(=O)Cc2ccccc2-c2cnc(CO)cc21)Nc1ccc(C(F)(F)F)cc1 [#60, 2-[3-(hydroxymethyl)-6-oxo-7H-pyrido[4,3-d][3]benzazepin-5-yl]-N-[4-(trifluoromethyl)phenyl]acetamide]	100 to 501 nM	100 to 501 nM		
Cc1cc2c(c(Cl)n1)-c1cccnc1C(C)C(=O)N2CC(=O)Nc1ccc(C#N)cc1 (stereo not drawn) [#115, 2-(3-chloro-5,10-dimethyl-9-oxo-4,8,12-triazatricyclo[9.4.0.0^2,7]pentadeca-1(11),2,4,6,12,14-hexaen-8-yl)-N-(4-cyanophenyl)acetamide]	100 to 501 nM	39.8 to 100 nM		
COc1nc(OC(F)F)cc2c1-c1cccnc1C(C)C(=O)N2CC(=O)Nc1ccc(C(F)F)cc1 (single isomer, unassigned) [#330, 2-[5-(difluoromethoxy)-3-methoxy-10-methyl-9-oxo-4,8,12-triazatricyclo[9.4.0.0^2,7]pentadeca-1(15),2(7),3,5,11,13-hexaen-8-yl]-N-[4-(difluoromethyl)phenyl]acetamide]		< 15.8 nM	C (about 7.40 < pIC50 ≤ about 7.80)	
COc1cc2c(c(F)n1)-c1cccnc1C(C)C(=O)N2CC(=O)Nc1ccc(Cl)c(F)c1 (single isomer, unassigned) [#215, Enantiomer (10S) or (10R) of N-(4-chloro-3-fluoro-phenyl)-2-[3-fluoro-5-methoxy-10-methyl-9-oxo-4,8,12-triazatricyclo[9.4.0.0^2,7]pentadeca-1(15),2(7),3,5,11,13-hexaen-8-yl]acetamide]			C (about 7.40 < pIC50 ≤ about 7.80)	C (about 7.40 < pIC50 ≤ about 7.80)
Cc1cc2c(c(C#N)n1)-c1cccnc1C(C)C(=O)N2CC(=O)Nc1ccc(C(F)(F)F)cc1 (stereo not drawn) [#154, 2-(3-cyano-5,10-dimethyl-9-oxo-4,8,12-triazatricyclo[9.4.0.0^2,7]pentadeca-1(11),2(7),3,5,12,14-hexaen-8-yl)-N-[4-(trifluoromethyl)phenyl]acetamide]	15.8 to 39.8 nM	< 15.8 nM		
Cc1cc2c(c(F)n1)-c1cccnc1C(F)C(=O)N2CC(=O)Nc1ccc(C(F)(F)F)cc1 (stereo not drawn) [#101, 2-(3,10-difluoro-5-methyl-9-oxo-4,8,12-triazatricyclo[9.4.0.0^2,7]pentadeca-1(11),2(7),3,5,12,14-hexaen-8-yl)-N-[4-(trifluoromethyl)phenyl]acetamide]	15.8 to 39.8 nM	< 15.8 nM		
CCc1nc(C)cc2c1-c1ccccc1CC(=O)N2CC(=O)Nc1ccc(C(F)(F)F)cc1 [#72, 2-(1-ethyl-3-methyl-6-oxo-7H-pyrido[4,3-d][3]benzazepin-5-yl)-N-[4-(trifluoromethyl)phenyl]acetamide]	39.8 to 100 nM	15.8 to 39.8 nM		

More lines, now with the values ahead:

IC50 [1]	IC50 [2]	pIC50 Cystine-induced glutamate release assay [1]	pIC50 [^14C] L-Cystine uptake assay [2]	SMILES
< 15.8 nM	15.8 to 39.8 nM			Cc1cc2c(cn1)-c1cc(F)cnc1C(C)C(=O)N2CC(=O)Nc1ccc(C(F)F)cc1 (single isomer, unassigned) [#328, N-[4-(difluoromethyl)phenyl]-2-[14-fluoro-5,10-dimethyl-9-oxo-4,8,12-triazatricyclo[9.4.0.0^2,7]pentadeca-1(15),2,4,6,11,13-hexaen-8-yl]acetamide]
< 15.8 nM	< 15.8 nM			COc1cc2c(c(Cl)n1)-c1cccnc1C(C)C(=O)N2CC(=O)Nc1ccc(C(F)F)cc1 (single isomer, unassigned) [#411, 2-(3-chloro-5-methoxy-10-methyl-9-oxo-4,8,12-triazatricyclo[9.4.0.0^2,7]pentadeca-1(11),2(7),3,5,12,14-hexaen-8-yl]-N-[4-(difluoromethyl)phenyl)acetamide]
< 15.8 nM	< 15.8 nM			Cc1cc2c(c(Cl)n1)-c1cc(F)nn1C(C)C(=O)N2CC(=O)Nc1ccc(C(F)F)cc1 (single isomer, unassigned) [#389, 2-[14-chloro-4-fluoro-7,12-dimethyl-8-oxo-5,6,9,13-tetrazatricyclo[8.4.0.0^2,6]tetradeca-1(14),2,4,10,12-pentaen-9-yl]-N-[4-(difluoromethyl)phenyl]acetamide]
15.8 to 39.8 nM	39.8 to 100 nM			COc1cc2c(cn1)-c1cccnc1C(C)C(=O)N2CC(=O)Nc1ccc(C(F)F)cc1 (single isomer, unassigned) [#319, N-[4-(difluoromethyl)phenyl]-2-[5-methoxy-10-methyl-9-oxo-4,8,12-triazatricyclo[9.4.0.0^2,7]pentadeca-1(15),2(7),3,5,11,13-hexaen-8-yl]acetamide]
15.8 to 39.8 nM	< 15.8 nM			CC1C(=O)N(CC(=O)Nc2ccc(Cl)c(F)c2)c2cc(C(F)F)ncc2-c2cc(F)cnc21 (single isomer, unassigned) [#348, N-(4-chloro-3-fluoro-phenyl)-2-[5-(difluoromethyl)-14-fluoro-10-methyl-9-oxo-4,8,12-triazatricyclo[9.4.0.0^2,7]pentadeca-1(15),2,4,6,11,13-hexaen-8-yl]acetamide]
< 15.8 nM	15.8 to 39.8 nM			Cc1cc2c(cn1)-c1cccnc1C(C)C(=O)N2CC(=O)Nc1ccc(C(F)F)c(F)c1 (single isomer, unassigned) [#252, N-[4-(difluoromethyl)-3-fluoro-phenyl]-2-[5,10-dimethyl-9-oxo-4,8,12-triazatricyclo[9.4.0.0^2,7]pentadeca-1(15),2,4,6,11,13-hexaen-8-yl]acetamide]
